Reference: US11591341B2 (ALIGOS THERAPEUTICS, INC., priority 2019, dated 2023)

system: HBV; assay: HBV-DNA Antiviral Assay Using HepG2.117 Cells (intracellular HBV DNA by qPCR); assay type: cell-based, hepatitis B virus (genotype D); conditions: Hepatitis B virus, HepG2.117
In short: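 Endpoint: qPCR copy number of intracellular HBV DNA after 3-day compound exposure, with inhibition set relative to the 2% DMSO control. The cells were doxycycline-free HepG2.117 carrying a Tet-off genotype D genome, dosed at nine 4-fold dilutions. A duplicate plate gave ATP-based viability (CC50).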

COc1ccc(-n2c(C(=O)NCc3ccc4[nH]c(=O)[nH]c4c3)c3n(c2=O)CCN(C(=O)c2ccc(Cl)c(Cl)c2)C3)cc1 [Example 93, 7-(3,4-dichlorobenzoyl)-2-(4-methoxyphenyl)-3-oxo-N-[(2-oxo-1,3-dihydrobenzimidazol-5-yl)methyl]-6,8-dihydro-5H-imidazo[1,5-a]pyrazine-1-carboxamide] and COc1ccc(-n2c(C(=O)NCc3ccc(C#N)cc3)c3n(c2=O)CCN(C(=O)c2ccc(Cl)c(Cl)c2)C3)cc1 [Example 84, N-[(4-cyanophenyl)methyl]-7-(3,4-dichlorobenzoyl)-2-(4-methoxyphenyl)-3-oxo-6,8-dihydro-5H-imidazo[1,5-a]pyrazine-1-carboxamide] cannot be ordered by EC50: greater than 5000 nM for the first, greater than 5000 nM for the second.

COc1ccc(-n2c(C(=O)N[C@@H](C)c3ccccc3)c3n(c2=O)CCN(C(=O)c2ccc(Br)c(Cl)c2)C3)cc1 (stereo in doubt) [Example 69, 7-(4-bromo-3-chloro-benzoyl)-2-(4-methoxypehnyl)-3-oxo-N-[rac-(1S)-1-phenylethyl]-6,8-dihydro-5H-imidazo[1,5-a]pyrazine-1-carboxamide] and C[C@H](NC(=O)c1c2n(c(=O)n1-c1ccc(OC3CC3)cc1)CCN(C(=O)c1ccc(Br)c(Cl)c1)C2)c1ccccc1 (racemic) [Example 168, 7-(4-bromo-3-chloro-benzoy)-2-[4-(cyclopropoxy)phenyl]-3-oxo-N-[rac-(1S)-1-phenylethyl]-6,8-dihydro-5H-imidazo[1,5-a]pyrazine-1-carboxamide] fall in the same range of EC50: 100 to 500 nM for the first, 100 to 500 nM for the second.

Compared with COc1ccc(-n2c(C(=O)NCc3ccc(Cl)cc3)c3n(c2=O)CCN(C(=O)c2ccc(Br)c(Cl)c2)C3)cc1 [Example 139, 7-(4-bromo-3-chloro-benozyl)-N-[(4-chlorophenyl)methyl]-2-(4-methoxyphenyl)-3-oxo-6,8-dihydro-5H-imidazo[1,5-a]pyrazine-1-carboxamide], COc1ccc(-n2c(C(=O)NCc3ccc(C#N)cc3)c3n(c2=O)CCN(C(=O)c2ccc(Br)c(Cl)c2)C3)cc1 [Example 180, 7-(4-bromo-3-chloro-benzoyl)-N-[(4-cyanophenyl)methyl]-2-(4-methoxyphenyl)-3-oxo-6,8-dihydro-5H-imidazo[1,5-a]pyrazine-1-carboxamide] is higher in EC50: 100 to 500 nM for the first, 500 to 5000 nM for the second.

First: COc1ccc(CNC(=O)c2c3n(c(=O)n2-c2ccc(OC(C)C)cc2)CCN(C(=O)c2ccc(Br)c(Cl)c2)C3)c(F)c1 [Example 218, 7-(4-bromo-3-chloro-benzoyl)-N-[(2-fluoro-4-methoxy-phenyl)methyl]-2-(4-isopropoxyphenyl)-3-oxo-6,8-dihydro-5H-imdiazo[1,5-a]pyrazine-1-carboxamide]
Second: COc1ccc(-n2c(C(=O)NCc3cccc(OC)c3C)c3n(c2=O)CCN(C(=O)c2ccc(Br)c(Cl)c2)C3)cc1 [Example 155, 7-(4-bromo-3-chloro-benzoyl)-N-[(3-methoxy-2-methyl-phenyl)methyl]-2-(4-methoxyphenyl)-3-oxo-6,8-dihydro-5H-imidazo[1,5-a]pyrazine-1-carboxamide]
The EC50 of the first is lower: less than 100 nM for the first, 100 to 500 nM for the second.

C[C@@H](Oc1ccc([C@@H](C)NC(=O)c2c3n(c(=O)n2-c2ccc(OCC(F)(F)F)cc2)CCN(C(=O)c2ccc(Br)c(Cl)c2)C3)c(F)c1)C(N)=O (stereo in doubt) [Example 359, 7-(4-bromo-3-chloro-benzoyl)-3-oxo-N-[rac-(1R)-1-[2-fluoro-4-[rac-(1R)-2-amino-1-methyl-2-oxo-ethoxy]phenyl]ethyl]-2-[4-(2,2,2-trifluoroethoxy)phenyl]-6,8-dihydro-5H-imidazo[1,5-a]pyrazine-1-carboxamide] and C[C@@H](Oc1ccc([C@@H](C)NC(=O)c2c3n(c(=O)n2-c2ccc(OC4CC4)cc2)CCN(C(=O)c2ccc(Br)c(Cl)c2)C3)c(F)c1)C(N)=O (stereo in doubt) [Example 355, 7-(4-bromo-3-chloro-benzoyl)-2-[4-(cyclopropoxy)phenyl]-3-oxo-N-[rac-(1R)-1-[2-fluoro-4-[rac-(1R)-2-amino-1-methyl-2-oxo-ethoxy]phenyl]ethyl]-6,8-dihydro-5H-imidazo[1,5-a]pyrazine-1-carboxamide] fall in the same range of EC50: 500 to 5000 nM for the first, 500 to 5000 nM for the second.

Compared with O=C(NCc1ccccc1)c1c2n(c(=O)n1-c1cccc(F)c1)CCN(C(=O)c1ccc(Br)c(Cl)c1)C2 [Example 23, N-benzyl-7-(4-bromo-3-chloro-benzoyl)-2-(3-fluorophenyl)-3-oxo-6,8-dihydro-5H-imidazo[1,5-a]pyrazine-1-carboxamide], Cc1ccc(-n2c(C(=O)NCc3ccccc3)c3n(c2=O)CCN(C(=O)c2ccc(Br)c(Cl)c2)C3)cc1 [Example 123, N-benzyl-7-(4-bromo-3-chloro-benzoyl)-3-oxo-2-(p-tolyl)-6,8-dihydro-5H-imidazo[1,5-a]pyrazine-1-carboxamide] is lower in EC50: 500 to 5000 nM for the first, 100 to 500 nM for the second.

Compared with C[C@H]1Cn2c(c3n(c2=O)C[C@@H](F)CN(Cc2ccccc2)C3=O)CN1C(=O)c1ccc(Br)c(Cl)c1 (stereo in doubt) [Example 371, 13-benzyl-4-(4-bromo-3-chlorobenzoyl)-11-fluoro-4,7,9,13-tetraazatricyclo[7.5.0.0^[2,7]]tetradec-1-ene-8,14-dione], C[C@H](c1ccccc1)N1C[C@H](O)Cn2c(c3n(c2=O)CCN(C(=O)c2ccc(Br)c(Cl)c2)C3)C1=O (stereo in doubt) [Example 203, (11SR)-4-(4-bromo-3-chloro-benzoyl)-11-hydroxy-13-[(1R)-1-phenylethyl]-4,7,9,13-tetrazatricyclo[7.5.0.0^2,7]tetradec-1-ene-8,14-dione] is higher in EC50: less than 100 nM for the first, 100 to 500 nM for the second.

First: O=C(NCc1ccccc1)c1c2n(c(=O)n1-c1ccc(-n3cc(F)cn3)cc1)CCN(C(=O)c1ccc(Br)c(Cl)c1)C2 [Example 427, N-benzyl-7-(4-bromo-3-chloro-benzoyl)-2-[4-(4-fluoropyrazol-1-yl)phenyl]-3-oxo-6,8-dihydro-5H-imidazo[1,5-a]pyrazine-1-carboxamide]
Second: COc1ccc(-n2c(C(=O)NCc3ccccc3)c3n(c2=O)CCN(C(=O)c2ccc(Br)c(Cl)c2)C3)nc1 [Example 110, N-benzyl-7-(4-bromo-3-chloro-benzoyl)-2-(5-methoxy-2-pyridyl)-3-oxo-6,8-dihydro-5H-imidazo[1,5-a]pyrazine-1-carboxamide]
The EC50 of the first is lower: 100 to 500 nM for the first, 500 to 5000 nM for the second. The first is the more potent here.

C[C@H]1Cn2c(c(C(=O)NCc3ccccc3-n3cncn3)n(-c3ccc(OC4CC4)cc3)c2=O)CN1C(=O)c1ccc(Br)c(Cl)c1 (stereo in doubt) [Example 448, rac-(6S)-7-(4-bromo-3-chloro-benzoyl)-2-[4-(cyclopropoxy)phenyl]-6-methyl-3-oxo-N-[[2-(1,2,4-triazol-1-yl)phenyl]methyl]-6,8-dihydro-5H-imidazo[1,5-a]pyrazine-1-carboxamide] and O=C(NCc1ccccc1-c1ncccn1)c1c2n(c(=O)n1-c1ccc(OC3CC3)cc1)CCN(C(=O)c1ccc(Br)c(Cl)c1)C2 [Example 376, 7-(4-bromo-3-chloro-benzoyl)-2-[4-(cyclopropoxy)phenyl]-3-oxo-N-[(2-pyrimidin-2-ylphenyl)methyl]-6,8-dihydro-5H-imidazo[1,5-a]pyrazine-1-carboxamide] cannot be ordered by EC50: less than 100 nM for the first, less than 100 nM for the second.

First: COc1ccc(-n2c(C(=O)NCc3ccc(OC(F)(F)F)cc3)c3n(c2=O)CCN(C(=O)c2ccc(Br)c(Cl)c2)C3)cc1 [Example 158, 7-(4-bromo-3-chloro-benzoyl)-2-(4-methoxyphenyl)-3-oxo-N-[[4-(trifluoromethoxy)phenyl]methyl]-6,8-dihydro-5H-imidazo[1,5-a]pyrazine-1-carboxamide]
Second: NC(=O)COc1ccc(CNC(=O)c2c3n(c(=O)n2-c2ccc(OCC(F)(F)F)cc2)CCN(C(=O)c2ccc(Br)c(Cl)c2)C3)c(F)c1 [Example 303, N-[[4-(2-amino-2-oxo-ethoxy)-2-fluoro-phenyl]methyl]-7-(4-bromo-3-chloro-benzoyl)-3-oxo-2-[4-(2,2,2-trifluoroethoxy)phenyl]-6,8-dihydro-5H-imidazo[1,5-a]pyrazine-1-carboxamide]
The EC50 of the first is lower: 100 to 500 nM for the first, 500 to 5000 nM for the second.

First: O=C(NCc1ccccc1-c1ncccn1)c1c2n(c(=O)n1-c1ccc(-n3cccn3)cc1)CCN(C(=O)c1ccc(Br)c(Cl)c1)C2 [Example 429, 7-(4-bromo-3-chloro-benzoyl)-3-oxo-2-(4-pyrazol-1-ylphenyl)-N-[(2-pyrimidin-2-ylphenyl)methyl]-6,8-dihydro-5H-imidazo[1,5-a]pyrazine-1-carboxamide]
Second: O=C(NCc1ccccc1)c1c2n(c(=O)n1-c1ccc3[nH]c(C(F)(F)F)cc3c1)CCN(C(=O)c1ccc(Br)c(Cl)c1)C2 [Example 352, N-benzyl-7-(4-bromo-3-chloro-benzoyl)-3-oxo-2-[2-(trifluoromethyl)-1H-indol-5-yl]-6,8-dihydro-5H-imidazo[1,5-a]pyrazine-1-carboxamide]
The EC50 of the first is lower: less than 100 nM for the first, 500 to 5000 nM for the second.

Compared with Cc1c(C(=O)N2CCn3c(c(C(=O)NCc4ccccc4)n(-c4ccc(OC5CC5)cc4)c3=O)C2)ccc(Br)c1Cl [Example 462, N-benzyl-7-(4-bromo-3-chloro-2-methyl-benzoyl)-2-[4-(cyclopropoxy)phenyl]-3-oxo-6,8-dihydro-5H-imidazo[1,5-a]pyrazine-1-carboxamide], C[C@H](NC(=O)c1c2n(c(=O)n1-c1ccc(OC3CC3)cc1)CCN(C(=O)c1ccc(Br)c(Cl)c1)C2)c1ccc(OC2COC2)cc1F (stereo in doubt) [Example 347, 7-(4-bromo-3-chloro-benzoyl)-2-[4-(cyclopropoxy)phenyl]-3-oxo-N-[rac-(1S)-1-[2-fluoro-4-(oxetan-3-yloxy)phenyl]ethyl]-6,8-dihydro-5H-imidazo[1,5-a]pyrazine-1-carboxamide] is lower in EC50: 500 to 5000 nM for the first, 100 to 500 nM for the second.

COc1ccc(-n2c(C(=O)NC3(CO)CC3)c3n(c2=O)CCN(C(=O)c2ccc(Cl)c(Cl)c2)C3)cc1 [Example 106, 7-(3,4-dichlorobenzoyl)-N-[1-(hydroxymethyl)cyclopropyl]-2-(4-methoxyphenyl)-3-oxo-6,8-dihydro-5H-imidazo[1,5-a]pyrazine-1-carboxamide] gave an EC50 greater than 5000 nM.
